Experimental data taken from patent publication US10815222B2, “Compounds for use in the treatment of kinetoplastid infection” (C.N.C.C.S. S.c.a.r.l. COLLEZIONE NAZIONALE DEI COMPOSTI …, priority 2016, dated 2020).

tested on: Bloodstream form of Trypanosoma brucei, strain Lister 427; assay: Trypanosoma brucei growth inhibition assay (CellTiter-Glo, 24 h); type: cell-based; conditions: T. Brucei Growth Inibition Assay, class symbols; read-out: T. Brucei GI EC50
Outline: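 Bloodstream-form T. brucei Lister 427, 1500 parasites per well in supplemented IMDM with 10% FBS, were exposed to compound (DMSO ≤0.25% final) for 24 h at 37 °C. Viability was measured by CellTiter-Glo luminescence.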

Structure (SMILES) | EC50
COc1nc2ccccc2cc1-c1cnc(C2CN(CC3CCOC3)CCN2C(=O)CCc2n[nH]c3c2CCCC3)[nH]1 (centres unmarked) | 1010 to 5000 nM

same assay, conditions: Trypanosoma brucei; T. Brucei Growth Inibition Assay, class symbols; read-out: T. Brucei GI EC50

Structure (SMILES) | EC50
COc1nc2ccccc2cc1-c1cnc(C2CN(C)CCN2C(=O)Cc2ccccc2)[nH]1 (centres unmarked) [1-(2-(5-(2-methoxyquinolin-3-yl)-1H-imidazol-2-yl)-4-methylpiperazin-1-yl)-2-phenylethan-1-one] | 1010 to 5000 nM
COc1ccc2nc(C(F)(F)F)n(CC(=O)N3CCN(Cc4cn(C)nn4)CCC3c3ncc(-c4cc5ccccc5nc4OC)[nH]3)c2c1 (centres unmarked) | 100 to 500 nM
COc1ccc2nc(C(F)(F)F)n(CC(=O)N3CCN(C)CCC3c3ncc(-c4cc5ccccc5nc4OC)[nH]3)c2c1 (centres unmarked) | 510 to 1000 nM
COc1nc2ccccc2cc1-c1cnc(C2CN(C(=O)OCc3ccccc3)CCN2C(=O)Cn2c(C)nc3ccccc32)[nH]1 (centres unmarked) | 1010 to 5000 nM
COc1nc2ccccc2cc1-c1cnc(C2CN(S(C)(=O)=O)CCN2C(=O)Cc2ccccc2)[nH]1 (centres unmarked) | 1010 to 5000 nM
COc1ccc2nc(C(F)(F)F)n(CC(=O)N3CCN(CC4CCOC4)CCC3c3ncc(-c4cc5ccccc5nc4OC)[nH]3)c2c1 (centres unmarked) [2-(6-methoxy-2-(trifluoromethyl)-1H-benzo[d]imidazol-1-yl)-1-(7-(5-(2-methoxyquinolin-3-yl)-1H-imidazol-2-yl)-4-((tetrahydrofuran-3-yl)methyl)-1,4-diazepan-1-yl)ethan-1-one] | < 100 nM
COc1ccc2nc(C(F)(F)F)n(CC(=O)N3CCN(Cc4cnccn4)CCC3c3ncc(-c4cc5ccccc5nc4OC)[nH]3)c2c1 (centres unmarked) [2-(6-methoxy-2-(trifluoromethyl)-1H-benzo[d]imidazol-1-yl)-1-(7-(5-(2-methoxyquinolin-3-yl)-1H-imidazol-2-yl)-4-(pyrazin-2-ylmethyl)-1,4-diazepan-1-yl)ethan-1-one] | < 100 nM
COc1nc2ccccc2cc1-c1cnc(C2CN(Cc3cn(C)nn3)CCN2C(=O)Cc2c(C)[nH]c3ccc(F)cc23)[nH]1 (centres unmarked) | 100 to 500 nM
COc1nc2ccccc2cc1-c1cnc(C2CN(Cc3ccccc3)CCN2C(=O)CC2=C(C)NC3C=CC=CC23)[nH]1 (centres unmarked) | 100 to 500 nM
COc1ccc2nc(C(F)(F)F)n(CC(=O)N3CCN(Cc4cnn(C)c4)CCC3c3ncc(-c4cc5ccccc5nc4OC)[nH]3)c2c1 (centres unmarked) | 100 to 500 nM
COc1ccc2nc(C)n(CC(=O)N3CC[C@H](OC)C[C@H]3c3ncc(-c4cc5ccccc5nc4OC)[nH]3)c2c1 [1-((2S,4S)-4-methoxy-2-(5-(2-methoxyquinolin-3-yl)-1H-imidazol-2-yl)piperidin-1-yl)-2-(6-methoxy-2-methyl-1H-benzo[d]imidazol-1-yl)ethan-1-one] | < 100 nM
COc1nc2ccccc2cc1-c1cnc([C@@H]2CN(Cc3ccn(C)n3)CCN2C(=O)Cn2c(C(F)(F)F)nc3ccccc32)[nH]1 [(S)-1-(2-(5-(2-methoxyquinolin-3-yl)-1H-imidazol-2-yl)-4-((1-methyl-1H-pyrazol-3-yl)methyl)piperazin-1-yl)-2-(2-(trifluoromethyl)-1H-benzo[d]imidazol-1-yl)ethan-1-one] | < 100 nM
COc1ccc2nc(C)n(CC(=O)N3CCN(CCn4cccn4)C[C@H]3c3ncc(-c4cc5ccccc5nc4OC)[nH]3)c2c1 | 100 to 500 nM
COc1ccc(CC(=O)N2CCN(C)CC2c2ncc(-c3ccc4ccccc4c3)[nH]2)cc1 (centres unmarked) | 1010 to 5000 nM
CCn1cc(CN2CCC(c3ncc(-c4cc5ccccc5nc4OC)[nH]3)N(C(=O)Cn3c(C(F)(F)F)nc4ccc(OC)cc43)CC2)cn1 (centres unmarked) | 510 to 1000 nM
COc1nc2ccccc2cc1-c1cnc([C@@H]2CN(Cc3cncnc3)CCN2C(=O)Cn2c(C(F)(F)F)nc3ccccc32)[nH]1 [(S)-1-(2-(5-(2-methoxyquinolin-3-yl)-1H-imidazol-2-yl)-4-(pyrimidin-5-ylmethyl)piperazin-1-yl)-2-(2-(trifluoromethyl)-1H-benzo[d]imidazol-1-yl)ethan-1-one] | < 100 nM
COc1ccc2nc(C(F)(F)F)n(CC(=O)N3CC[C@H](NC(C)C)C[C@H]3c3ncc(-c4cc5ccccc5nc4OC)[nH]3)c2c1 [1-((2S,4S)-4-(isopropylamino)-2-(5-(2-methoxyquinolin-3-yl)-1H-imidazol-2-yl)piperidin-1-yl)-2-(6-methoxy-2-(trifluoromethyl)-1H-benzo[d]imidazol-1-yl)ethan-1-one] | < 100 nM
COc1ccc2c(c1)C(CC(=O)N1CCN(CC3CCOC3)CC1c1ncc(-c3ccc4ccccc4c3)[nH]1)C(=O)N2 (centres unmarked) | 1010 to 5000 nM
COc1ccc2nc(C(F)(F)F)n(CC(=O)N3CCN(Cc4nccs4)CCC3c3ncc(-c4cc5ccccc5nc4OC)[nH]3)c2c1 (centres unmarked) [2-(6-methoxy-2-(trifluoromethyl)-1H-benzo[d]imidazol-1-yl)-1-(7-(5-(2-methoxyquinolin-3-yl)-1H-imidazol-2-yl)-4-(thiazol-2-ylmethyl)-1,4-diazepan-1-yl)ethan-1-one] | < 100 nM
COc1ccc2nc(C(F)(F)F)n(CC(=O)N3CCC(N(C)Cc4cnccn4)C[C@H]3c3ncc(-c4cc5ccccc5nc4OC)[nH]3)c2c1 (stereo partly drawn) [2-(6-methoxy-2-(trifluoromethyl)-1H-benzo[d]imidazol-1-yl)-1-((2S)-2-(5-(2-methoxyquinolin-3-yl)-1H-imidazol-2-yl)-4-(methyl(pyrazin-2-ylmethyl)amino)piperidin-1-yl)ethan-1-one] | < 100 nM
COc1ccc2nc(C)n(CC(=O)N3CCN(Cc4ccn(C)n4)CCC3c3ncc(-c4cc5ccccc5nc4OC)[nH]3)c2c1 (centres unmarked) [2-(6-methoxy-2-methyl-1H-benzo[d]imidazol-1-yl)-1-(7-(5-(2-methoxyquinolin-3-yl)-1H-imidazol-2-yl)-4-((1-methyl-1H-pyrazol-3-yl)methyl)-1,4-diazepan-1-yl)ethan-1-one] | < 100 nM
COc1nc2ccccc2cc1-c1cnc(C2CN(CC3CCOC3)CCN2C(=O)Cn2c(C)nc3cc(F)c(F)cc32)[nH]1 (centres unmarked) | 100 to 500 nM
COc1ccc2nc(C(F)(F)F)n(CC(=O)N3CCN(Cc4ccon4)CCC3c3ncc(-c4cc5ccccc5nc4OC)[nH]3)c2c1 (centres unmarked) [1-(4-(isoxazol-3-ylmethyl)-7-(5-(2-methoxyquinolin-3-yl)-1H-imidazol-2-yl)-1,4-diazepan-1-yl)-2-(6-methoxy-2-(trifluoromethyl)-1H-benzo[d]imidazol-1-yl)ethan-1-one] | < 100 nM

Structure (SMILES) | EC50
COc1ccc2nc(C(F)(F)F)n(CC(=O)N3CC[C@H](NC4CCC4)C[C@H]3c3ncc(-c4cc5ccccc5nc4OC)[nH]3)c2c1 [1-((2S,4S)-4-(cyclobutylamino)-2-(5-(2-methoxyquinolin-3-yl)-1H-imidazol-2-yl)piperidin-1-yl)-2-(6-methoxy-2-(trifluoromethyl)-1H-benzo[d]imidazol-1-yl)ethan-1-one] | < 100 nM
CN1CCN(C(=O)Cc2ccccc2F)C(c2ncc(-c3ccc4ccccc4c3)[nH]2)C1 (centres unmarked) | 1010 to 5000 nM
COc1ccc2[nH]c(C)c(CC(=O)N3CCCN(C)CC3c3ncc(-c4ccc5ccccc5c4)[nH]3)c2c1 (centres unmarked) [2-(5-methoxy-2-methyl-1H-indol-3-yl)-1-(4-methyl-2-(5-(naphthalen-2-yl)-1H-imidazol-2-yl)-1,4-diazepan-1-yl)ethan-1-one] | 1010 to 5000 nM
Cn1cc(CC(=O)N2CCN(CC3CCOC3)CC2c2ncc(-c3ccc4ccccc4c3)[nH]2)c2ccccc21 (centres unmarked) | 100 to 500 nM
COc1nc2ccccc2cc1-c1cnc(C2CN(CC3CCOC3)CCN2C(=O)Cn2c(C#N)nc3ccccc32)[nH]1 (centres unmarked) | 1010 to 5000 nM
COc1nc2ccccc2cc1-c1cnc(C2CN(CC(F)F)CCN2C(=O)Cc2ccccc2)[nH]1 (centres unmarked) | 1010 to 5000 nM
COc1nc2ccccc2cc1-c1cnc(C2CN(CC3CCOC3)CCN2C(=O)Cn2nc3ccccc3n2)[nH]1 (centres unmarked) | 1010 to 5000 nM
COc1ccc2nc(C)n(CC(=O)N3CCN(Cc4ccn(C)n4)CC[C@@H]3c3ncc(-c4cc5ccccc5nc4OC)[nH]3)c2c1 [(R)-2-(6-methoxy-2-methyl-1H-benzo[d]imidazol-1-yl)-1-(7-(5-(2-methoxyquinolin-3-yl)-1H-imidazol-2-yl)-4-((1-methyl-1H-pyrazol-3-yl)methyl)-1,4-diazepan-1-yl)ethan-1-one] | < 100 nM
O=C(Cc1c[nH]c2ncccc12)N1CCOCC1c1ncc(-c2ccc3ccccc3c2)[nH]1 (centres unmarked) | 1010 to 5000 nM
CCCCCCN1CCN(C(=O)CC2C(=O)Nc3ccc(OC)cc32)C(c2ncc(-c3ccc4ccccc4c3)[nH]2)C1 (centres unmarked) | 1010 to 5000 nM
Cc1csc(CC(=O)N2CCN(CCc3ccccc3)CC2c2ncc(-c3ccc4ccccc4c3)[nH]2)n1 (centres unmarked) | 1010 to 5000 nM
CCC(=O)CCCN1CCN(C(=O)c2ccccc2)C(c2ncc(-c3ccc4ccccc4c3)[nH]2)C1 (centres unmarked) [6-(4-benzoyl-3-(5-(naphthalen-2-yl)-1H-imidazol-2-yl)piperazin-1-yl)hexan-3-one] | 1010 to 5000 nM
COc1nc2ccccc2cc1-c1cnc([C@@H]2CN(CC3CCOC3)CCN2C(=O)Cn2c(C)nc3ncncc32)[nH]1 (some centres unmarked) | 1010 to 5000 nM
COc1ccc2nc(C(F)(F)F)n(CC(=O)N3CCN(CC4COC4)CCC3c3ncc(-c4cc5ccccc5nc4OC)[nH]3)c2c1 (centres unmarked) | 100 to 500 nM
O=C(Cc1nc2ccccc2o1)N1CCN(CC2CC2)CC1c1ncc(-c2ccc3ccccc3c2)[nH]1 (centres unmarked) | 1010 to 5000 nM
COc1ccc2nc(C(F)(F)F)n(CC(=O)N3CC[C@@H](NCc4nccs4)C[C@H]3c3ncc(-c4cc5ccccc5nc4OC)[nH]3)c2c1 | 100 to 500 nM
COc1ccc2nc(C)n(CC(=O)N3CCN(Cc4cn(C)nn4)C[C@H]3c3ncc(-c4cc5ccccc5nc4OC)[nH]3)c2c1 | 510 to 1000 nM
COC(=O)CCCN1CCN(C(=O)Cc2c(C)[nH]c3ccc(OC)cc23)C(c2ncc(-c3ccc4ccccc4c3)[nH]2)C1 (centres unmarked) | 100 to 500 nM
COc1ccc2onc(CC(=O)N3CCN(CC4CCOC4)C[C@H]3c3ncc(-c4cc5ccccc5nc4OC)[nH]3)c2c1 (some centres unmarked) | 100 to 500 nM
COc1ccc2nc(C)n(CC(=O)N3CCN(Cc4nccs4)C[C@H]3c3ncc(-c4cc5ccccc5nc4OC)[nH]3)c2c1 [(S)-2-(6-methoxy-2-methyl-1H-benzo[d]imidazol-1-yl)-1-(2-(5-(2-methoxyquinolin-3-yl)-1H-imidazol-2-yl)-4-(thiazol-2-ylmethyl)piperazin-1-yl)ethan-1-one] | < 100 nM
COc1nc2ccccc2cc1-c1cnc(C2CNCCN2C(=O)Cn2c(C)nc3ccccc32)[nH]1 (centres unmarked) | 1010 to 5000 nM
CCCCCCN1CCN(C(=O)Cc2n[nH]c3ccccc23)C(c2ncc(-c3ccc4ccccc4c3)[nH]2)C1 (centres unmarked) | 1010 to 5000 nM
CCC(=O)CCCN1CCN(C(=O)Cn2ccnn2)C(c2ncc(-c3ccc4ccccc4c3)[nH]2)C1 (centres unmarked) | 1010 to 5000 nM
